Here are results for one compound from patent publication US20230340498A1, “COMPOSITIONS AND METHODS FOR INDUCIBLE ALTERNATIVE SPLICING REGULATION OF GENE EXPRESSION” (The Children's Hospital of Philadelphia, priority 2020, published 2023).

For the assay, the system named is SMN2-on minigene. Nature of the assay: SMN2-on cassette Firefly luciferase reporter assay in transfected HEK293 cells. Type of assay: cell-based, Human. The settings on record: HEK293 cells, varying doses. Here is the method: Cell culture, transfection, and LMI070/RG7800 treatment. Human embryonic kidney (HEK293) cells (obtained from CHOP Research Vector Core stock) were maintained in DMEM media containing 10% Fetal Bovine Serum (FBS), 1% L-Glutamine and 1% penicillin/streptomycin at 37° C. with 5% CO2. Cells were cultured in 24 well plates and transfected at 80-90% confluence using Lipofectamine 2000 transfection reagent, according to the manufacturer’s protocol. For all experiments, 4 hours after plasmid transfection, cells were treated with LMI070 (MedChemExpress, HY-19620, suspended in DMSO) or RG7800 (MedChemExpress, HY-101792A, suspended in H2O) at the indicated concentrations. Cells were tested for mycoplasma by Research Vector Core. None of the cells used in the study were listed in ICLAC database of commonly misidentified cell lines.
In vitro luciferase assays. HEK293 cells were cultured in DMEM (10% FBS (v/v), 1% Pen/ Strep (v/v), and 1% L-glutamine (v/v) in a 24-well plate. At 70%-80% confluence, cells were co-transfected with the Xon.Firefly luciferase cassettes (0.3 µg/well) and a SV40p-Renilla luciferase cassette as transfection control (0.02 µg/well). Four hours after transfections cells were treated either with LMI070 or RG7800 at indicated concentrations. At 24 h after transfection, cells were rinsed with ice-cold PBS and Renilla and Firefly luciferase activities were assessed using the Dual-Luciferase Reporter Assay System (Promega) according to the manufacturer’s instructions. Luminescent readouts were obtained with a Monolight 3010 luminometer (Pharmigen). Relative light units (RLUs) were calculated as the quotient of […] RLUs and results expressed relative to mock treated control cells.
For this, SMN2-on cassettes were generated to provide drug-induced reporter gene expression. HEK293 cells were transfected with the SMN2-on expression cassettes and luciferase activity evaluated in response to varying doses of LMI070 or RG7800. […]
Background: A reporter such as luciferase makes a cellular process visible.

Molecules are shown by their SMILES.

With `CCc1nc(C)cn2nc(-c3cc(=O)n4cc(C5CCN(C)CC5)cc(C)c4n3)cc12` [RG7800], the “luciferase activity from the SMN2-on minigene” value is on record as “induced luciferase activity”.
